“Also recorded” adds a separate entry of the source.
Columns and labels:
[1] = system: Pt3R cells; assay: Cell viability / cytotoxicity of TMZ-resistant Pt3R cells (CCK8); type: cell-based, human
[2] = system: Pt3R cells; assay: Proliferation of Pt3R cells after treatment (FIG. 4A); type: cell-based, human; conditions: 2 μM, 48 h
[3] = molecular target: EZH2 (Core Histone) (Homo sapiens, UniProt Q15910); assay: EZH2 inhibition assay (Reaction Biology Corporation); type: biochemical
Experimental: The EZH2 inhibitory ability of the synthesized adduct was assessed by Reaction Biology Corporation, Malvern, PA (http://www.reactionbiology.com).

[4] = system: mitochondrial ROS; assay: MitoSOX assay of mitochondrial ROS; type: cell-based
Experimental: (§1) Dihydrorhodamine 123 (DHR; Thermo Fisher Scientific, Waltham, MA, USA) was used to label cellular ROS detected by flow cytometry, and the MitoSOX reagent (Thermo Fisher Scientific) was used to label mitochondrial ROS [55].
Thus, the ability of compound 7 to disturb redox homeostasis in TMZ-resistant cells and attain amplified therapeutic efficacy for GBM was evaluated. In both Pt3 and Pt3R cells, treatment with compound 7 for 48 h increased the ROS level (FIG. 7A). […] Moreover, it was also observed that compound 7 increased mitochondria-derived ROS.
(§2) Treatment concentration of MPT1A059 was indicated.

[5] = system: Pt3R cells; assay: Itraq-based proteomics analysis of Pt3R cells; type: cell-based, human; design: M059/DMSO, P4HA2 (O15460) / M059/DMSO, ATP6V1E1 (P36543) / M059/DMSO, HSPH1 (Q92598) / M059/DMSO, ACTB (P60709) / M059/DMSO, HSPB1 (P04792) / M059/DMSO, S100A10 (P60903) / M059/DMSO, LRPAP1 (P30533) / M059/DMSO, GIPC1 (O14908) / M059/DMSO, HSPE1 (P61604) / M059/DMSO, OLA1 (Q9NTK5) / M059/DMSO, EEF1B2 (P24534) / M059/DMSO, PSMD3 (O43242) / M059/DMSO, ZYX (Q15942) / M059/DMSO, HK1 (P19367) / M059/DMSO, ARF3 (P61204) / M059/DMSO, TWF1 (Q12792) / M059/DMSO, HSPA8 (P11142) / M059/DMSO, CTNNB1 (P35222) / M059/DMSO, EHD1 (Q9H4M9) / M059/DMSO, HSPA4 (P34932) / M059/DMSO, PSMD14 (O00487): dose or concentration left out as unconfirmed
Experimental: Pt3 GBM cells were isolated from a GBM patient as described in our previous study. Temozolomide (TMZ)-resistant phenotype of Pt3R cells had been validated previously. Pt3 cells were cultured in DMEM-supplemented with 10% fetal bovine serum, 100 μg/ml streptomycin and 100 μg/ml penicillin G. Pt3R cells were cultured in the presence of 100 μM of TMZ (MilliporeSigma Corporate, St. Louis, MO, USA).
RNA was isolated using the RNA extracting kit (Zymo Research, Irvine, CA, USA), and subjected to RNA-seq serviced by BIOTOOLS Co., Ltd (New Taipei City, Taiwan). Cell pellets were collected and subjected to proteomic analysis serviced by BIOTOOLS Co., Ltd. The comparison in gene expression between Pt3 and Pt3R was performed using RNA seq, and has been described previously.
Having identified the desired chemical probe 7, we assessed global protein expression using Itraq-based proteomics analysis to estimate whether 7 suppresses HSP90 (Pt3R cell lines). […] This observation is aligned with the results attained with geldanamycin treatment (a well-known HSP90 inhibitor) (Cheung, C. H. A.; Chen, H.-H.; Cheng, L.-T.; Lyu, K. W.; Kanwar, J. R.; Chang, J.-Y. TargetingHsp90 with small molecule inhibitors induces the over-expression of the anti-apoptotic molecule, survivin, in human A549, HONE-1 and HT-29 cancer cells. Mol. Cancer 2010, 9 (1), 1-11; Kuroyanagi, G.; Tokuda, H.; Fujita, K.; Kawabata, T.; Sakai, G.; Kim, W.; Hioki, T.; Tachi, J; Matsushima-Nishiwaki, R.; Otsuka, T. Upregulation of TGF-β-induced HSP27 by HSP90 inhibitors in osteoblasts. BMC Musculoskelet. Disord. 2022, 23 (1), 495) and confirms the HSP90-suppressive activity of compound 7 in GBM cells.

[6] = system: Pt3R cells; assay: Cellular ROS assay (DHR, flow cytometry) in Pt3R cells; type: cell-based, human; conditions: 48 h, FIG. 7A
Source text: as §1, §2

[7] = system: Pt3R tumors; assay: Growth of TMZ-resistant Pt3R tumors in mice; type: in vivo, NOD.CB17-Prkdc^scid/NCrCrl mice; conditions: 5 mg/kg twice weekly
Experimental: NOD.CB17-Prkdc^scid/NCrCrl mice (8-week-old) were purchased from BioLASCO Taiwan Co., Ltd. (Taipei, Taiwan). Pt3R cells (1×10^6) in […] DMEM were injected onto the backs of mice. After 10 days, tumor was touchable. Mice were injected with DMSO (the control group) or MPT1A059 (5 mg/kg) twice per week.
In-vivo anti-GBM efficacy of compound 7 was also evaluated in this study. For the in-vivo study, experimental NOD.CB17-Prkdc^scid/NCrCrl mice (8-week-old) were used and Pt3R cells (1×10^6) in […] DMEM were injected into the backs of mice. After 10 days, the tumor was detectable. Mice were injected with DMSO (the control group) or compound 7 (5 mg/kg) twice weekly. […] In a nutshell, the outcome of the in-vivo study ascertains that the remarkable in vitro anti-GBM activity profile of dual inhibitor 7 was translated to the in-vivo potential.

Chain of EZH2 (Core Histone) (Q15910 whole entry): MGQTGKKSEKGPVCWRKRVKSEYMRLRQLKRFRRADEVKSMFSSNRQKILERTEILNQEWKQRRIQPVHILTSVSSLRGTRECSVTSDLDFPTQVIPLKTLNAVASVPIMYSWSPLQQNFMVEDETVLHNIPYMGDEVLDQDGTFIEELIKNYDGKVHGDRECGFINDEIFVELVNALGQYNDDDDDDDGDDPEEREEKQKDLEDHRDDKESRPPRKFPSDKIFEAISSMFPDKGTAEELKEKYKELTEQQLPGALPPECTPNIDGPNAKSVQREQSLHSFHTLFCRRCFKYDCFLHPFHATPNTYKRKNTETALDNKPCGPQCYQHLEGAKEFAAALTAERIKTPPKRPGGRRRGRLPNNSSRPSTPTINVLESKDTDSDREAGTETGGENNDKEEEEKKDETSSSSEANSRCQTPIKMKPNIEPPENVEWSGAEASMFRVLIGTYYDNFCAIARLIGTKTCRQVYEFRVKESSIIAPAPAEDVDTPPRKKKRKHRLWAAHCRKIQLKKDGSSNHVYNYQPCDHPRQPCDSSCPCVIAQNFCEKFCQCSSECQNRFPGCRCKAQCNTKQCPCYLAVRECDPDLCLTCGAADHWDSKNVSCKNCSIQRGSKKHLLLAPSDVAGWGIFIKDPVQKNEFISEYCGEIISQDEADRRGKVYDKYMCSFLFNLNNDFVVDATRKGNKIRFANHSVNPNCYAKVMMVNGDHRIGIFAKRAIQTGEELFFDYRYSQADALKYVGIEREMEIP
Chain of EZH2 (Core Histone) (O75530 whole entry partner): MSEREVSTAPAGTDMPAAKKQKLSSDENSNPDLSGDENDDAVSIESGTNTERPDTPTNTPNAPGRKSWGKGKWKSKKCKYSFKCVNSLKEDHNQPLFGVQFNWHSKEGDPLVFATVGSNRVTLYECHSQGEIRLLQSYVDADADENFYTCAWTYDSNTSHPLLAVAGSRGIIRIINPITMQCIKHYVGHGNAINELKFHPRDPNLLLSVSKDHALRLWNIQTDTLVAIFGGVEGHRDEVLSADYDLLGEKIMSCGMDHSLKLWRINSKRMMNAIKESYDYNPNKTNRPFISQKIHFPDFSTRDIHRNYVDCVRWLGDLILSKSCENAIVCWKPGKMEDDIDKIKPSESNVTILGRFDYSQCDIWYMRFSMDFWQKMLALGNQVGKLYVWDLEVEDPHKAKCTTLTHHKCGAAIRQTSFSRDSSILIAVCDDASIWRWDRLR
Chain of EZH2 (Core Histone) (Q15022 whole entry partner): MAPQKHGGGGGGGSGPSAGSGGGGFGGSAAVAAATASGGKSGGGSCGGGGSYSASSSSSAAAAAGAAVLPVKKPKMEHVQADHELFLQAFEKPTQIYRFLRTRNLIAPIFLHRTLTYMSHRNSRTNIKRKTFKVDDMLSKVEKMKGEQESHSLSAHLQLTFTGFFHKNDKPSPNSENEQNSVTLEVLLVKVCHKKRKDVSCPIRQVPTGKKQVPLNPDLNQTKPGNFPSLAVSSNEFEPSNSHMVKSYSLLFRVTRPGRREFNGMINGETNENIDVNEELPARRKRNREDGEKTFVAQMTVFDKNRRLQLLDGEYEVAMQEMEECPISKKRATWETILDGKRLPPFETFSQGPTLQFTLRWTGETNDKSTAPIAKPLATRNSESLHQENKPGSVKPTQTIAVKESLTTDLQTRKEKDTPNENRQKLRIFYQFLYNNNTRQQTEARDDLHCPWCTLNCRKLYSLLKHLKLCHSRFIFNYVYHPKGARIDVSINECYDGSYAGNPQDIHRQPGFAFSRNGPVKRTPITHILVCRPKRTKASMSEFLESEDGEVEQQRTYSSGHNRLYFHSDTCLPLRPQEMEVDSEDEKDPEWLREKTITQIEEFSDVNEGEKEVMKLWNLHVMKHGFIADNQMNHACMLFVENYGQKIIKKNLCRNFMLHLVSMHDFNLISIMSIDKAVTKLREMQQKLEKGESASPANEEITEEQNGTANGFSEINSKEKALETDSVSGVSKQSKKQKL
Chain of EZH2 (Core Histone) (Q09028 whole entry partner): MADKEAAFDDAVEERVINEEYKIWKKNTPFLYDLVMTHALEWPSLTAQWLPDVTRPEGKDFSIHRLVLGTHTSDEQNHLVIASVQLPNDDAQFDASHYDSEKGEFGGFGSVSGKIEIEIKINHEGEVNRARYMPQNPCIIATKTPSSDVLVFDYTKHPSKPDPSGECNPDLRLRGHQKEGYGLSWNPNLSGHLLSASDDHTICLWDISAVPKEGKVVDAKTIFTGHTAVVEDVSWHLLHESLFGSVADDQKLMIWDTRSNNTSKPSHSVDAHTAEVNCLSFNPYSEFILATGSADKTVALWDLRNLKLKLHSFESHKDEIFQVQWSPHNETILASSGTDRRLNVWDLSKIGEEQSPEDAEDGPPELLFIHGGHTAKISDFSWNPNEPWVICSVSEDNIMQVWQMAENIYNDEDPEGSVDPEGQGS
Chain of EZH2 (Core Histone) (Q6ZN18 whole entry partner): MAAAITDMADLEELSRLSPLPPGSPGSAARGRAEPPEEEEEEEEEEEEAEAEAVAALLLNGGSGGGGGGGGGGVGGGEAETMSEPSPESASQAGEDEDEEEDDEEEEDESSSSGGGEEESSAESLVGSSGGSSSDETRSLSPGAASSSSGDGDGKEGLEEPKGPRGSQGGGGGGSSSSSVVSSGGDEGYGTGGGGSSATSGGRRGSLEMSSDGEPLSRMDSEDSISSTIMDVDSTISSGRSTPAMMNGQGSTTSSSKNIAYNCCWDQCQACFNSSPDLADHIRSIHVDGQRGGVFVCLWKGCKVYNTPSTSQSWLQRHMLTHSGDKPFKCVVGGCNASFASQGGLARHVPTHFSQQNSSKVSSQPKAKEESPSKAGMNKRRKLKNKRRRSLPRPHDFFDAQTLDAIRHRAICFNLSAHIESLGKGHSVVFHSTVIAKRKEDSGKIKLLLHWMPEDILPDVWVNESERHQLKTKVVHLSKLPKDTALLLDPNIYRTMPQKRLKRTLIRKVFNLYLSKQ

CCN(c1cc(-c2cccc(N(C)C(=O)c3cc(C(C)C)c(O)cc3O)c2)cc(C(=O)NCc2c(C)cc(C)[nH]c2=O)c1C)C1CCOCC1 [Compound 7, 3′-(2,4-dihydroxy-5-isopropyl-N-methylbenzamido)-N-((4,6-dimethyl-2-oxo-1,2-dihydropyridin-3-yl)methyl)-5-(ethyl(tetrahydro-2H-pyran-4-yl)amino)-4-methyl-[1,1′-biphenyl]-3-carboxamide]
cell growth / viability inhibitory effect in words [1]: the only ones to exert cell viability inhibitory potential; also recorded: the most effective against the Pt3R cell lines
IC50 ([1]; read-out: Cell growth inhibitory effect IC50): 1010 nM
cell proliferation [2]: significantly inhibited cell proliferation
IC50 [3]: 6.29 nM
mitochondria-derived ROS [4]: increased
MitoSOX red signal representing ROS produced from mitochondria ([4]; FIG. 7C): remarkably enhanced
HSP family proteins (HSPA1A, HSPA8, HSP90AA1, HSPB1, HSPH1 and HSPA4) ([5]; Pt3R cells): significantly increased
M059/DMSO, PA2G4 (Q9UQ80) ([5]; decreased): 0.628
M059/DMSO, ACTB (P60709) ([5]; increased): 1.657
M059/DMSO, ARF3 (P61204) ([5]; increased): 1.944
M059/DMSO, ATP5IF1 (Q9UII2) ([5]; increased): 1.646
M059/DMSO, ATP6V1E1 (P36543) ([5]; increased): 1.599
M059/DMSO, CTNNB1 (P35222) ([5]; increased): 1.550
M059/DMSO, EEF1B2 (P24534) ([5]; increased): 1.792
M059/DMSO, EHD1 (Q9H4M9) ([5]; increased): 1.555
M059/DMSO, GIPC1 (O14908) ([5]; increased): 1.699
M059/DMSO, HK1 (P19367) ([5]; increased): 1.921
M059/DMSO, HSP90AA1 (P07900) ([5]; increased): 1.958
M059/DMSO, HSPA4 (P34932) ([5]; increased): 1.561
M059/DMSO, HSPA8 (P11142) ([5]; increased): 2.096
M059/DMSO, HSPB1 (P04792) ([5]; increased): 1.661
M059/DMSO, HSPE1 (P61604) ([5]; increased): 1.710
M059/DMSO, HSPH1 (Q92598) ([5]; increased): 1.642
M059/DMSO, LRPAP1 (P30533) ([5]; increased): 1.667
M059/DMSO, OLA1 (Q9NTK5) ([5]; increased): 1.745
M059/DMSO, P4HA2 (O15460) ([5]; increased): 1.588
M059/DMSO, PSMD3 (O43242) ([5]; increased): 1.801
M059/DMSO, PSMD14 (O00487) ([5]; increased): 1.579
M059/DMSO, S100A10 (P60903) ([5]; increased): 1.664
M059/DMSO, TWF1 (Q12792) ([5]; increased): 1.995
M059/DMSO, ZYX (Q15942) ([5]; increased): 1.903
ROS level [6]: increased
tumor size and weight compared to DMSO-treated mice ([7]; FIG. 8A): significantly smaller sizes and weights
tumor growth ([7]; FIG. 8B): tumor growth suppression ability

Reference: patent US20260365637A1, “DUAL EZH2-HSP90 INHIBITORS” (TAIPEI MEDICAL UNIVERSITY, priority 2023, published 2026)
